Laboratory results: US10912759B2 (priority 2018, dated 2021)

Key:
[1] = tested on: S. aureus; experiment: MIC and MBC of topical gel vs. Mupirocin; assay type: cell-based, Staphylococcus aureus; details: 0-10% w/v, overnight at 37° C., aliquots plated, lack of any growth
Method: MIC was determined by visually observing where turbid growth stopped, MBC was determined by taking aliquots from each tube, plating onto media, and observation for lack of any growth.
Mupirocin is the standard ointment for treatment of S. aureus topical infections. […] MIC was determined by visually observing where turbid growth stopped, MBC was determined by taking aliquots from each tube, plating onto media, and observation for lack of any growth.

[2] = tested on: SprX; assay type: cell-based, S. aureus; details: 1% (w/v), one hour, RNA level by RT-PCR
From the text: (§1) FIG. 10 is a graph showing the effect of the topical gel on S. aureus gene expression compared to mupirocin treatment. Results are expressed as percent change in intensity values.
(§2) FIG. 11 is a graph showing the effect of the topical gel on S. aureus gene expression compared to control and mupirocin treatment. Results are expressed as gene expression intensity ratios.
(§3) In an effort to elucidate the mechanism of action of the topical gel on S. aureus as well as to examine any commonalities or differences in Staphylococcal response to treatment, transcriptional response was evaluated. S. aureus was either 1) grown alone as a control, 2) grown in 1% (w/v) topical gel, or 3) grown in 1% (w/v) Mupirocin for one hour. Cells were harvested and total RNA was extracted. Reverse Transcriptase polymerase chain reaction using gene specific primers was utilized to determine the RNA levels for the specific genes RecA, SprX, and PsrA. RecA is a protein specific for SOS response in Staphylococcus indicative of a need to repair DNA damage. SprX is a small RNA associated with Staphylococcus antibiotic resistance. PsrA regulates expression of proteins in the cell wall of Staphylococcus which are both essential for bacterial survival and antibiotic resistance.

[3] = tested on: PsrA; experiment: S. aureus gene expression by RT-PCR; assay type: cell-based; details: 1% (w/v), one hour, RNA level by RT-PCR
From the text: as §1, §2, §3

`C/C(=C\C(=O)OCCCCCCCCC(=O)O)C[C@@H]1OC[C@H](C[C@@H]2O[C@H]2[C@@H](C)[C@H](C)O)[C@@H](O)[C@H]1O` [Mupirocin] was tested, and the “MBC values compared to topical gel” value [1] was “lower MBC values”, the “reduction of expression of SprX” value [2] was 78% and the “reduction of expression of PsrA” value [3] was 56%.
